Key:
Type in all cases: cell-based
MRC-5 cell line = test: Cell viability assay (cytotoxicity) for MRC-5 cell line; conditions: Homo sapiens, MRC5, 120 h; MRC-5 normal cell line, 5 days, EZ-Cytox, 10000 nM to 1.52 nM; read-out: Activity: IC50 value to MRC-5 cell line (Exemplary Compounds)
Method: 4. Cell Viability Assay for MRC-5 Cell Line
(1) Culture of MRC-5 Cell Line
Passage of cultured cells was maintained within P15.
(2) Treatment of Compounds of the Present Invention
Then, it was cultured in 37° C.
(3) Cytotoxicity Experiment
CO2 incubator for 4 hours.
Cell Viability Assay for MRC-5 cell line

PLK1 = biological target: T1, PLK1 (Homo sapiens, UniProt P53350); test: Luciferase assay for PLK1 in HeLa LgBit (Plk1-HiBit KI) cell line; conditions: 300 nM compound, luminescence after 9 hours, read-out: Activity: ratio of the luminescense value of compound treatment group to DMSO treatment group
T1 construct: endogenous in cells; host or cells: HeLa LgBit (Plk1-HiBit KI): HeLa cells stably expressing LgBit, with HiBit knocked into the endogenous Plk1 locus by CRISPR/Cas9
Outline: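 HeLa cells stably expressing LgBit, with HiBit knocked in at the C-terminus of endogenous Plk1, released from a 24 h 2 mM thymidine block and grown 18 h. Endurazine added, then compound at 300 nM; luminescence tracked in real time, expressed as ratio to DMSO.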

NCI-H526 cell line = test: Cell viability assay for H526 cell line; conditions: Homo sapiens, NCI-H526, 120 h; H526 cells, 5 days, EZ-Cytox, 3000 nM to 0.46 nM
Outline: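 NCI-H526 cells exposed to compounds for 5 days in a CO2 incubator; viability read as absorbance at 450 nm after 3 min plate shaking; IC50 derived from treatment response.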

T1 sequence (P53350 whole entry): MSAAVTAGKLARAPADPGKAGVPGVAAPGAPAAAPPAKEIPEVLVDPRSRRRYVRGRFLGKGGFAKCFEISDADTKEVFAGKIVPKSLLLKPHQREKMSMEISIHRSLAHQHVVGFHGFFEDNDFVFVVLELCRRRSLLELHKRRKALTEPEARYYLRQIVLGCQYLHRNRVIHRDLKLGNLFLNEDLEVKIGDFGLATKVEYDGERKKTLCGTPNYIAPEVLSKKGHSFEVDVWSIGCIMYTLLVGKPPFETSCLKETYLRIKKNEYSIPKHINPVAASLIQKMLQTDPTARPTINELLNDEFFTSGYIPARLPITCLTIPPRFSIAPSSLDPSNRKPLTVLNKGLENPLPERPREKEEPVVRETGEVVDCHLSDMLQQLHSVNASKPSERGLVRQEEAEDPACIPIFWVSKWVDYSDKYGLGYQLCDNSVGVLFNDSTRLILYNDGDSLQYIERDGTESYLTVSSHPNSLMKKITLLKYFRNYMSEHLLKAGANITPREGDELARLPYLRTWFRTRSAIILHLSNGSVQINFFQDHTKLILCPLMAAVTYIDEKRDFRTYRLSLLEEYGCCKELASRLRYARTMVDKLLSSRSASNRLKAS

| SMILES | remaining activity at 0.3 µM (PLK1) | IC50 (MRC-5 cell line) | IC50 (NCI-H526 cell line) |
| --- | --- | --- | --- |
| COc1cc(C(=O)NC2CCN(C(=O)CCN3CCN(c4ccc(N5CCC(=O)NC5=O)cc4)CC3)CC2)ccc1Nc1ncc2c(n1)N(C1CCCC1)CC(F)(F)C(=O)N2C [Compound 32, 4-((9-cyclopentyl-7,7-difluoro-5-methyl-6-oxo-6,7,8,9-tetrahydro-5H-pyrimido[4,5-b][1,4]diazepin-2-yl)amino)-N-(1-(3-(4-(4-(2,4-dioxotetrahydropyrimidin-1(2H)-yl)phenyl)piperazin-1-yl)propanoyl)piperidin-4-yl)-3-methoxybenzamide] | < 60% | > 10 µM | < 0.03 µM |
| COc1cc(C(=O)NC2CCN(C(=O)CCCOc3cccc(C4CCC(=O)NC4=O)n3)CC2)ccc1Nc1ncc2c(n1)N(C1CCCC1)CC(F)(F)C(=O)N2C (stereo not drawn) [Compound 35, 4-((9-cyclopentyl-7,7-difluoro-5-methyl-6-oxo-6,7,8,9-tetrahydro-5H-pyrimido[4,5-b][1,4]diazepin-2-yl)amino)-N-(1-(4-((6-(2,6-dioxopiperidin-3-yl)pyridin-2-yl)oxy)butanoyl)piperidin-4-yl)-3-methoxybenzamide] | < 60% | > 10 µM | < 0.05 µM |
| COc1cc(C(=O)NC2CCN(C(=O)CCN3CCN(c4cccc(C5CCC(=O)NC5=O)n4)CC3)CC2)ccc1Nc1ncc2c(n1)N(C1CCCC1)CC(F)(F)C(=O)N2C (stereo not drawn) [Compound 36, 4-((9-cyclopentyl-7,7-difluoro-5-methyl-6-oxo-6,7,8,9-tetrahydro-5H-pyrimido[4,5-b][1,4]diazepin-2-yl)amino)-N-(1-(3-(4-(6-(2,6-dioxopiperidin-3-yl)pyridin-2-yl)piperazin-1-yl)propanoyl)piperidin-4-yl)-3-methoxybenzamide] | < 60% | > 10 µM | < 0.03 µM |
| COc1cc(C(=O)NC2CCN(C(=O)CCN3CCN(c4ccnc(C5CCC(=O)NC5=O)c4)CC3)CC2)ccc1Nc1ncc2c(n1)N(C1CCCC1)CC(F)(F)C(=O)N2C (stereo not drawn) [Compound 37, 4-((9-cyclopentyl-7,7-difluoro-5-methyl-6-oxo-6,7,8,9-tetrahydro-5H-pyrimido[4,5-b][1,4]diazepin-2-yl)amino)-N-(1-(3-(4-(2-(2,6-dioxopiperidin-3-yl)pyridin-4-yl)piperazin-1-yl)propanoyl)piperidin-4-yl)-3-methoxybenzamide] | < 60% | > 10 µM | < 0.05 µM |

Second part, led by results:

| remaining activity at 0.3 µM (PLK1) | SMILES | IC50 (MRC-5 cell line) | IC50 (NCI-H526 cell line) |
| --- | --- | --- | --- |
| < 30% | COc1cc(C(=O)NC2CC3(CCN(CC4CCN(c5ccc(C6CCC(=O)NC6=O)cc5C)CC4)CC3)C2)ccc1Nc1ncc2c(n1)N(C1CCCC1)CC(F)(F)C(=O)N2C (stereo not drawn) [Compound 25, 4-((9-cyclopentyl-7,7-difluoro-5-methyl-6-oxo-6,7,8,9-tetrahydro-5H-pyrimido[4,5-b][1,4]diazepin-2-yl)amino)-N-(7-((1-(4-(2,6-dioxopiperidin-3-yl)-2-methylphenyl)piperidin-4-yl)methyl)-7-azaspiro[3.5]nonan-2-yl)-3-methoxybenzamide] | > 10 µM | < 0.03 µM |
| < 60% | COc1cc(C(=O)NC2CC3(CCN(CC4(C)CCN(c5ccc(C6CCC(=O)NC6=O)cc5F)CC4)CC3)C2)ccc1Nc1ncc2c(n1)N(C1CCCC1)CC(F)(F)C(=O)N2C (stereo not drawn) [Compound 26, 4-((9-cyclopentyl-7,7-difluoro-5-methyl-6-oxo-6,7,8,9-tetrahydro-5H-pyrimido[4,5-b][1,4]diazepin-2-yl)amino)-N-(7-((1-(4-(2,6-dioxopiperidin-3-yl)-2-fluorophenyl)-4-methylpiperidin-4-yl)methyl)-7-azaspiro[3.5]nonan-2-yl)-3-methoxybenzamide] | 5.59 µM | < 0.05 µM |
| < 60% | COc1cc(C(=O)NC2CC3(CCN(CC4CCN(c5ccc(C6CCC(=O)NC6=O)cc5F)CC4C)CC3)C2)ccc1Nc1ncc2c(n1)N(C1CCCC1)CC(F)(F)C(=O)N2C (stereo not drawn) [Compound 27, 4-((9-cyclopentyl-7,7-difluoro-5-methyl-6-oxo-6,7,8,9-tetrahydro-5H-pyrimido[4,5-b][1,4]diazepin-2-yl)amino)-N-(7-((1-(4-(2,6-dioxopiperidin-3-yl)-2-fluorophenyl)-3-methylpiperidin-4-yl)methyl)-7-azaspiro[3.5]nonan-2-yl)-3-methoxybenzamide] | > 10 µM | < 0.03 µM |
| < 70% | COc1cc(C(=O)NC2CC3(CCN(CC4CCN(c5ccc(N6CCC(=O)NC6=O)cc5)CC4)CC3)C2)ccc1Nc1ncc2c(n1)N(C1CCCC1)CC(F)(F)C(=O)N2C [Compound 33, 4-((9-cyclopentyl-7,7-difluoro-5-methyl-6-oxo-6,7,8,9-tetrahydro-5H-pyrimido[4,5-b][1,4]diazepin-2-yl)amino)-N-(7-((1-(4-(2,4-dioxotetrahydropyrimidin-1(2H)-yl)phenyl)piperidin-4-yl)methyl)-7-azaspiro[3.5]nonan-2-yl)-3-methoxybenzamide] | > 10 µM | < 0.03 µM |
| < 60% | COc1cc(C(=O)NC2CC3(CCN(CC4CCN(c5ccc(C6CCC(=O)NC6=O)nc5)CC4)CC3)C2)ccc1Nc1ncc2c(n1)N(C1CCCC1)CC(F)(F)C(=O)N2C (stereo not drawn) [Compound 39, 4-((9-cyclopentyl-7,7-difluoro-5-methyl-6-oxo-6,7,8,9-tetrahydro-5H-pyrimido[4,5-b][1,4]diazepin-2-yl)amino)-N-(7-((1-(6-(2,6-dioxopiperidin-3-yl)pyridin-3-yl)piperidin-4-yl)methyl)-7-azaspiro[3.5]nonan-2-yl)-3-methoxybenzamide] | > 10 µM | < 0.03 µM |
| < 60% | COc1cc(C(=O)NC2CC3(CCN(CCC4CCN(c5ccc(C6CCC(=O)NC6=O)cc5F)CC4)CC3)C2)ccc1Nc1ncc2c(n1)N(C1CCCC1)CC(F)(F)C(=O)N2C (stereo not drawn) [Compound 45, 4-((9-cyclopentyl-7,7-difluoro-5-methyl-6-oxo-6,7,8,9-tetrahydro-5H-pyrimido[4,5-b][1,4]diazepin-2-yl)amino)-N-(7-(2-(1-(4-(2,6-dioxopiperidin-3-yl)-2-fluorophenyl)piperidin-4-yl)ethyl)-7-azaspiro[3.5]nonan-2-yl)-3-methoxybenzamide] | 8.68 µM | < 0.03 µM |

— patent publication US11912710B2 (UPPTHERA, INC., priority 2021, dated 2024)
